Source: US20240158754A1, “REDUCING HIGH MANNOSE GLYCAN PROTEIN EXPRESSION USING GUANOSINE 5'-MONOPHOSPHATE” (MERCK SHARP & DOHME LLC, priority 2021, published 2024)
Entries after “also recorded” stand apart in the source; their conditions may differ.

Assays:
Format in all cases: cell-based, Chinese hamster
[1] = tested on: recombinant CHO cell line expressing mAb C; assay: 10-day fed-batch assay of eighteen components (Example 1); details: mAb C cell line (Table 4, untitled)
Protocol: (§1) Experiment was executed by dividing into 6-blocks. In each experiment block, 3 unique test components were assessed and control conditions with no added test component were included for all three cell lines. Cells were cultured in Merck proprietary chemically defined media in increasing volume to obtain sufficient number of cells for inoculation. […] Merck proprietary chemically defined nutrient feed media were added to all the cultures on day 3, day 6, and day 8. On Day 6, cells from both 1 L flasks for each cell line were pooled and then aliquoted in 125 mL Erlenmeyer flasks with 30 mL working volume, respectively. Stock solutions for each of the tested component were prepared as defined in Table 1 below, and all components were ordered from Sigma Aldrich (St. Louis, MO). Component 6 is GMP. All solutions were prepared in purified water. For each cell line, components were added to the cultures at final concentration at a lower and higher concentrations as per Table 1, respectively, on day 6 of the fed-batch culture. […] A control condition with no added test component was also created for each cell line. All conditions were run with two replicates. All cultures were harvested on day 10.
(§2) Cell culture parameters were analyzed on day 0, 3, 6, 8 and 10, and the corresponding spent medium supernatants were evaluated for antibody titer, charge variants and glycan analysis on day 10 to assess the effect of added components on cell growth, viability, titer, aggregation, charge variants and glycan profile of the recombinant antibodies. Cell density and viability were measured using the trypan blue exclusion method with Cedex Bio Analyzer (Roche Diagnostics GmbH, Mannheim, Germany). Culture pH was measured using ABL80 Blood/Gas Analyzer (Radiometer, Denmark).
(§3) Antibody titer was analyzed using a mAb-specific reverse-phase high-performance liquid chromatography (HPLC) or analytical Protein A HPLC method. Multiple product quality attributes were analyzed on harvested cell-culture fluid (HCCF) after a Protein A chromatography step. Analysis of HMW species was performed by size-exclusion chromatography, analysis of charge variants was performed by ion exchange chromatography, and analysis of N-glycan was performed by ultra-performance liquid chromatography (UPLC) with 2-aminobenzamide (2-AB) labeling.
(§4) Data generated from all 6 blocks for all tested components (excluding component 9 and 12) were transformed using a dimensionless number, which is termed as Concentration Impact Factor, and abbreviated as Cf. Cf provides a score value for impact of change in component's concentration on desired response when tested at different concentrations. The equation used to transform data to calculate Cf is described below as equation 1. The first part of the equation represents a directional vector, which determines whether increasing the component concentration from a lower value to a higher value results in a positive or negative response for the measure attribute. The second part of the equation then calculates the magnitude of that change as the concentration changes from low to high.
(§5) wherein, • Cf. Concentration impact factor (dimensionless number) • H: Response for a measured attribute when component is added at a higher concentration • L: Response for a measured attribute when component is added at a lower concentration • C: Response for a measured attribute […] • hc: high concentration (mM) of the component added • lc: low concentration (mM) of the component added

[2] = tested on: recombinant CHO cell line expressing mAb A; assay: as above; details: for Relative IVCC (% to Control): added day 6, harvest day 10; for Relative IVCC (% to Control) / Relative Titer (% to Control) / Relative Viability (% to Control): mAb A cell line
Protocol: as §1, §2, §3, §4, §5

[3] = tested on: recombinant CHO cell line expressing mAb B; assay: as above
Protocol: as §1, §2, §3, §4, §5

[4] = tested on: recombinant CHO cell lines expressing monoclonal antibodies (mAb A, mAb B, or mAb C); assay: 10-day fed-batch assay of eighteen components (Example 1), statements for all cell lines; details: among the 18 tested components
Protocol: Experiment was executed by dividing into 6-blocks. In each experiment block, 3 unique test components were assessed and control conditions with no added test component were included for all three cell lines. Cells were cultured in Merck proprietary chemically defined media in increasing volume to obtain sufficient number of cells for inoculation. For cell lines expressing mAb A and mAb B, cells were seeded at 0.5×10^6 cells per mL into Merck proprietary chemically defined production medium in two 1 L Erlenmeyer flasks at a final volume of 250 mL in each flask. […]
as §2, with “Denmark). Cell culture metabolites were measured using RX Imola (Randox Laboratories Ltd. Crumlin, UK) and osmolality was measured using a micro-Osmometer 2020 (Advanced Instruments, Norwood, MA). […]” for “Denmark).”

[5] = tested on: recombinant CHO cell line expressing mAb C; assay: 10-day fed-batch assay with GMP (Example 2)
Protocol: (§6) Cells were cultured in Merck proprietary chemically defined media in increasing volume to obtain sufficient number of cells for inoculation. For cell lines expressing mAb A and mAb B, cells were seeded at 0.5×10^6 cells per mL into Merck proprietary chemically defined production medium in two 1 L Erlenmeyer flasks at a final volume of 250 mL in each flask. For cell line expressing mAb C, cells were seeded at 1.0×10^6 cells per mL into production medium in two 1 L Erlenmeyer flasks at a final volume of 250 mL in each flask. Cells were incubated at 36.5° C., with agitation at 100 rpm, in presence of 5% CO2, and humidity ≥70%. Merck proprietary chemically defined nutrient feed media were added to all the cultures on day 3, day 6, and day 8. On Day 6, cells from both 1 L flasks for each cell line were pooled and then aliquoted in 125 mL Erlenmeyer flasks with 30 mL working volume, respectively. A 200 mM stock solution of GMP was prepared by adding Guanosine 5′-monophosphate disodium salt hydrate (Sigma Aldrich, St. Louis, MO) in purified water. After the cells were aliquoted in separate 125 mL test flasks on day 6, GMP was added to the cultures at final concentration of 1 mM or 10 mM. No change in pH and osmolality was observed as a result of the GMP addition. A control condition with no added GMP was also created for each cell line. All conditions were run with two replicates. All cultures were harvested on day 10.
as §2, with “variants,” for “variants”, “GMP” for “added components”, “titer,” for “titer, aggregation, charge variants”, “Denmark). Cell culture metabolites were measured using RX Imola (Randox Laboratories Ltd. Crumlin, UK) and osmolality was measured using a micro-Osmometer 2020 (Advanced Instruments, Norwood, MA).” for “Denmark).”
as §3

[6] = tested on: recombinant CHO cell line expressing mAb A; assay: 10-day fed-batch assay with GMP (Example 2)
Protocol: as §6
as §2, with “variants,” for “variants”, “GMP” for “added components”, “titer,” for “titer, aggregation, charge variants”, “Denmark). Cell culture metabolites were measured using RX Imola (Randox Laboratories Ltd. Crumlin, UK) and osmolality was measured using a micro-Osmometer 2020 (Advanced Instruments, Norwood, MA).” for “Denmark).”
as §3

[7] = tested on: recombinant CHO cell line expressing mAb B; assay: 10-day fed-batch assay with GMP (Example 2)
Protocol: as §6
as §2, with “variants,” for “variants”, “GMP” for “added components”, “titer,” for “titer, aggregation, charge variants”, “Denmark). Cell culture metabolites were measured using RX Imola (Randox Laboratories Ltd. Crumlin, UK) and osmolality was measured using a micro-Osmometer 2020 (Advanced Instruments, Norwood, MA).” for “Denmark).”
as §3

[8] = tested on: recombinant CHO cell lines expressing monoclonal antibodies (mAb A, mAb B, or mAb C); assay: 10-day fed-batch assay with GMP (Example 2), statements for all cell lines
Protocol: as §6
as §2, with “variants,” for “variants”, “GMP” for “added components”, “titer,” for “titer, aggregation, charge variants”, “Denmark). Cell culture metabolites were measured using RX Imola (Randox Laboratories Ltd. Crumlin, UK) and osmolality was measured using a micro-Osmometer 2020 (Advanced Instruments, Norwood, MA).” for “Denmark).”
as §3

[9] = Higher Concentration per Table 1
[10] = Lower Concentration per Table 1

SMILES: Nc1nc2c(ncn2[C@@H]2O[C@H](COP(=O)(O)O)[C@@H](O)[C@H]2O)c(=O)[nH]1 [Component 6, Guanosine 5′-monophosphate]
- Relative IVCC (% to Control) [1, 9]: 79.88 % to Control
- Relative Titer (% to Control) [1, 9]: 103.8 % to Control
- Relative Viability (% to Control) [1, 9]: 87.81 % to Control
- Relative IVCC (% to Control) [1, 10]: 97.24 % to Control
- Relative Titer (% to Control) [1, 10]: 102.19 % to Control
- Relative Viability (% to Control) [1, 10]: 99.25 % to Control
- Relative IVCC (% to Control) ([2]; Higher Concentration per Table 1 (GMP 10 mM)): 95.08 % to Control
- Relative Titer (% to Control) [2, 9]: 96.14 % to Control
- Relative Viability (% to Control) [2, 9]: 91.8 % to Control
- Relative IVCC (% to Control) ([2]; Lower Concentration per Table 1 (GMP 1 mM)): 100.61 % to Control
- Relative Titer (% to Control) [2, 10]: 101.88 % to Control
- Relative Viability (% to Control) [2, 10]: 96.75 % to Control
- dose dependent change in Man 5 peak (Cf) ([2]; mAb A, lower vs higher concentration): largest dose dependent decrease in Man 5 peak
- Relative IVCC (% to Control) [3, 9]: 90.77 % to Control
- Relative Titer (% to Control) [3, 9]: 94.86 % to Control
- Relative Viability (% to Control) [3, 9]: 95.28 % to Control
- Relative IVCC (% to Control) [3, 10]: 96.14 % to Control
- Relative Titer (% to Control) [3, 10]: 100.81 % to Control
- Relative Viability (% to Control) [3, 10]: 100.77 % to Control
- overall HMG content, in particular Man 5 species, of the monoclonal antibodies produced [4]: reduced
- Cumulative Titer ([5]; GMP 1 mM): 690 mg/L
- Final viability ([5]; GMP 1 mM): 98.5%
- IVCC ([5]; GMP 1 mM): 86.5 10^6 cells · Day/mL
- high mannose glycans ([5]; GMP 1 mM): slight decrease
- Cumulative Titer ([5]; GMP 10 mM): 701 mg/L
- Final viability ([5]; GMP 10 mM): 86.3%
- IVCC ([5]; GMP 10 mM): 71.1 10^6 cells · Day/mL
- cell growth ([5]; GMP 10 mM): considerable decrease
- Man 5 (HMG level, value relative to control) ([5]; GMP final concentration 1 mM): 0.98
- Man 5 (HMG level, value relative to control) ([5]; GMP final concentration 10 mM): 0.68
- Cumulative Titer ([6]; GMP 1 mM): 158 mg/L
- Final viability ([6]; GMP 1 mM): 85.5%
- IVCC ([6]; GMP 1 mM): 46.4 10^6 cells · Day/mL
- high mannose glycans ([6]; GMP 1 mM): slight decrease
- Cumulative Titer ([6]; GMP 10 mM): 167 mg/L
- Final viability ([6]; GMP 10 mM): 77.4%
- IVCC ([6]; GMP 10 mM): 44.3 10^6 cells · Day/mL
- cell growth ([6]; GMP 10 mM): slight decrease
- Man 5 (HMG level, value relative to control) ([6]; GMP final concentration 1 mM): 0.97
- Total HMG (value relative to control) ([6]; GMP final concentration 1 mM): 0.96
- Man 5 (HMG level, value relative to control) ([6]; GMP final concentration 10 mM): 0.76
- Total HMG (value relative to control) ([6]; GMP final concentration 10 mM): 0.76
- Cumulative Titer ([7]; GMP 1 mM): 314 mg/L
- Final viability ([7]; GMP 1 mM): 86.9%
- IVCC ([7]; GMP 1 mM): 52.7 10^6 cells · Day/mL
- Cumulative Titer ([7]; GMP 10 mM): 296 mg/L
- Final viability ([7]; GMP 10 mM): 82.1%
- IVCC ([7]; GMP 10 mM): 49.7 10^6 cells · Day/mL
- cell growth ([7]; GMP 10 mM): slight decrease
- Man 5 (HMG level, value relative to control) ([7]; GMP final concentration 1 mM): 1.02
- Total HMG (value relative to control) ([7]; GMP final concentration 1 mM): 1.01
- Man 5 (HMG level, value relative to control) ([7]; GMP final concentration 10 mM): 0.91
- Total HMG (value relative to control) ([7]; GMP final concentration 10 mM): 0.90
- higher order mannose structures [8]: slight decrease
- impact on cell culture parameters ([8]; GMP 1 mM): no impact
- HMG content on the recombinant antibodies ([8]; GMP 1 mM and 10 mM): dose dependent decrease
- high mannose ([8]; GMP 10 mM, all cell lines): large decreases
- Man 5 content ([8]; mAb A, mAb B, and mAb C, listed as GMP): major high mannose species downregulated; also recorded: dose dependent decrease
- cell culture performance parameters (IVCC, final viability, titer, ammonia, lactate) ([8]; three CHO cell lines): did not significantly affect
